Columns and labels:
[1] = test system: Candida albicans; test: Clinical study in vulvovaginal candidiasis; assay type: in vivo; conditions: for healing: final vaginal exudate, six days after the last ovule; for time at which symptoms and signs disappeared in a higher percent: in vivo
Procedure: Ninety women, 17 to 51 years old, with diagnosis of vulvovaginal candidiasis were studied. Patients were allocated at random in three groups: 30 were treated with ovules containing 10% ozonized theobroma oil, 30 were treated with Nistatine and 30 with Clotrimazole. To all patients, a vaginal exudate was performed at the beginning and at the end of the treatment, six days after the application of the last ovule. Also, an interrogation and a physical test were performed to them. The clinical symptoms of those patients were pruritus, burning and leucorrhea with higher prevalence. […] Taking into account the final exudate, a healing of 97% was obtained for the patients treated with ozonized theobroma oil ovules, 80% for the group treated with Clotrimazole and 50% for the patients treated with Nistatine.

[2] = test system: moderate simple periodontitis; test: Random, controlled, single-blind phase III clinical trial in moderate simple periodontitis; assay type: in vivo, human
Procedure: In this study, we used ozonized sunflower oil in order to evaluate their effect on the treatment of moderate simple periodontitis and for preventing its recidivation. A random, controlled and single-blind phase III clinical trial was performed in 84 patients, older than 35 years, from both sexes. Ozonized sunflower oil was topically applied to 42 patients on the operated area and on the 7th, 14th and 21st days after operation on the adjacent periodontal tissues. The control group was formed by 42 patients that received the conventional treatment with chlorhexidine (aqueous solution 0.2%). An analytic index of hygiene, clinical and radiographical tests and microbiological controls was applied to the patients, at the beginning, on the 21st , 90th and 180th days and with intervals of 1 month until 9 months after operation. The effectiveness of the treatment after 180 days was considered as: good (satisfactory clinical and microbiological assessments) in 98% of the patients of the group treated with ozonized sunflower oil and in 78% of the control group; fairly good (some of the assessments were not satisfactory) for 2 and 17%, respectively, and in the category of bad (both assessments were not satisfactory) only 5% appears in the control group. Recidivation was more frequent in the control group (15%) than in the group treated with ozonized sunflower oil (5%). In general, the best clinical results (best evolution and healing during the study) and microbiological results were obtained in the group treated with ozonized sunflower oil, and also a lower percent of recidivation was found in that group.

[3] = test system: blepharitis; test: Clinical study in blepharitis with acute bacterial infection; assay type: in vivo, human; conditions: topical on eyelid border, 7 days
Procedure: The sample was constituted by 40 patients suffering from blepharitis, with acute bacterial infection. Twenty patients were treated with topical ozonized sunflower oil, three times a day, by rubbing the border of the eyelid with an applicator soaked with ozonized sunflower oil, during 7 days. The 20 other patients were treated in the same way with gentamycin ointment (0.3%), 4 times a day for 7 days. Healing of 95 and 88% was obtained with ozonized sunflower oil and gentamycin, respectively, with significant differences between both groups.

[4] = test system: acute ulcer-necrotizing gingivitis; test: Random phase III clinical assay in acute ulcer-necrotizing gingivitis; assay type: in vivo, human; conditions: three times a day for 7 days
Procedure: A random phase III clinical assay was performed in a group of 48 patients suffering from acute ulcer-necrotizing gingivitis. From those patients, 24 formed the group with ozonized sunflower oil, by topical applications on the lesions, three times a day, for 7 days. The control group (24 patients) was treated with local applications of aqueous solution of sodium perborate, as rinsings, with similar periodicity to that of the group treated with ozonized sunflower oil. The tests were performed 3 or 7 days after the beginning of the treatments.

For `Clc1ccccc1C(c1ccccc1)(c1ccccc1)n1ccnc1` [Clotrimazole], the healing [1] was 80% and the “time at which symptoms and signs disappeared in a higher percent” value [1] was “between the first and the fourth days of treatment”.

With `[H]/N=C(\N/C(=N/[H])NCCCCCCNC(=N)NC(=N)Nc1ccc(Cl)cc1)Nc1ccc(Cl)cc1` [chlorhexidine] the “effectiveness of the treatment considered bad” value ([2]; after 180 days, both assessments not satisfactory) was 5%, the “effectiveness of the treatment considered good” value ([2]; after 180 days, satisfactory clinical and microbiological assessments) was 78% and the “effectiveness of the treatment considered fairly good” value ([2]; after 180 days, some of the assessments not satisfactory) was 17%. For the same compound, the recidivation ([2]; human, in vivo) was 15%.

In the case of Nistatine, the healing [1] is reported as 50% and the “time at which symptoms and signs disappeared in a higher percent” value [1] is reported as “between the ninth and twelfth days”.

gentamycin showed a healing [3] of 88%.

With sodium perborate the patients healed [4] was 29.2%.

From patent publication US20060074129A1, “Method for obtaining ozonized oils and vegetable fats and use of said products for pharmaceutical and cosmetic purposes” (priority 2002, published 2006)
